# Reference: patent US12116358B2, “Substituted indoles and methods of use thereof” (EPIZYME, INC., priority 2018, dated 2024)
# Test system: H3K36me3 in A549 cells
# Assay: In-Cell Western (ICW) assay of SETD2 inhibitors (A549 assay)
# Format: cell-based, human
# Conditions: A549 cells; read-out: SETD2 A549
# In short: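 H3K36me3 In-Cell Western: cells exposed to compound for 3 days at 4,000 cells/well, 37° C. DRAQ5 (1:1000) marked cell number, with 700/800-channel Licor read-out.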
row,SMILES,IC50 [nM]
1,Cc1cccc2cc(C(=O)NC3CCCCC3)[nH]c12 [compound 522],20600
2,Cc1ccc(F)c2cc(C(=O)NC3CCCC(N4CCN(C(=O)C(C)C)C(C(F)(F)F)C4)C3)[nH]c12 (centres unmarked) [compound 1171],60
3,Cc1ccc(F)c2cc(C(=O)Nc3cccc(N4CCC5(CC4)CN(C)C5)c3)[nH]c12 [compound 98],200
4,Cc1ccc(F)c2cc(C(=O)NC3CCCC(N4CCN5C(=O)OCC5C4)C3)[nH]c12 (centres unmarked) [compound 865],100
5,Cc1ccc(F)c2cc(C(=O)NC3CCCC(N4CCN(C(=O)CO)C(C(F)(F)F)C4)C3)[nH]c12 (centres unmarked) [compound 1117],10
6,CC(=O)N1CCC12CN(C1CCCC(NC(=O)c3cc4c(F)ccc(C)c4[nH]3)C1)C2 (centres unmarked) [compound 951],> 2000
7,Cc1cccc2cc(C(=O)NC(CN(C)C)c3cccnc3)[nH]c12 (centres unmarked) [compound 603],> 25000
8,NCCC(=O)NC1CCC(NC(=O)c2cc3cccc(Br)c3[nH]2)CC1 (centres unmarked) [compound 553],> 25000
9,Cc1ccc(F)c2cc(C(=O)NC3CCCC(N4CCn5ccnc5C4)C3)[nH]c12 (centres unmarked) [compound 852],1000
10,Cc1ccc(F)c2cc(C(=O)Nc3cc(F)cc(N4CC5(CCN(CC(F)F)CC5)C4)c3)[nH]c12 [compound 40],100
11,Cc1ccc(F)c2cc(C(=O)Nc3cccc(N4CCC(N5CCC(N)CC5)CC4)c3)[nH]c12 [compound 530],> 25000
12,Cc1ccc(F)c2cc(C(=O)Nc3cccc(N4CC5CC4CN5C)c3)[nH]c12 (centres unmarked) [compound 348],1900
13,Cc1ccc(F)c2cc(C(=O)Nc3cccc(C4CCN5C(=O)CCC5C4)c3)[nH]c12 (centres unmarked) [compound 37],90
14,CC(=O)N[C@H]1CC[C@H](NC(=O)c2cc3c(F)ccc(C)c3[nH]2)CC1 [compound 512],16100
15,CNC(=O)CCCc1cccc(NC(=O)c2cc3c(F)ccc(C)c3[nH]2)c1 [compound 288],1000
16,Cc1ccc(F)c2cc(C(=O)Nc3cccc(N4CCN(C(C)C)CC4)c3)[nH]c12 [compound 243],600
17,Cc1ccc(F)c2cc(C(=O)Nc3cccc(N4CCC(NCCN)CC4)c3)[nH]c12 [compound 413],3100
18,Cc1ccc(F)c2cc(C(=O)NC3CCCC(N4CCC(N(CCO)S(C)(=O)=O)C4)C3)[nH]c12 (centres unmarked) [compound 1150],> 2000
19,Cc1ccc(F)c2cc(C(=O)NC3CCCC(c4cncnc4)C3)[nH]c12 (centres unmarked) [compound 369],> 2000
20,Cc1ccc(F)c2cc(C(=O)Nc3cccc(N4CCN(C5CCOCC5)CC4)c3)[nH]c12 [compound 207],400
21,Cc1ccc(F)c2cc(C(=O)Nc3cc(Cl)cc(N4CCN(C)CC4)c3)[nH]c12 [compound 91],200
22,Cc1ccc(F)c2cc(C(=O)NC3CCCC(N4CCC(N(C)C(=O)C5CC5)C4)C3)[nH]c12 (centres unmarked) [compound 971],100
23,CC(=O)N1CCN(C2CCC(NC(=O)c3cc4c(F)ccc(C)c4[nH]3)CC2)CC1 (centres unmarked) [compound 383],> 2000
24,Cc1ccc(F)c2cc(C(=O)NC3CCCC(N4CCN(C(=O)CO)C(C(F)(F)F)C4)C3)[nH]c12 (centres unmarked) [compound 1173],30

# Same assay, conditions: Homo sapiens; A549 cells; read-out: SETD2 A549
row,SMILES,IC50 [nM]
1,Cc1ccc(F)c2cc(C(=O)N[C@@H]3CCC[C@@H](N4CCn5c(cnc5C(F)(F)F)C4)C3)[nH]c12 [compound 994],> 2000
2,COCC(=O)N(C)[C@H]1CCN([C@H]2CCC[C@@H](NC(=O)c3cc4c(F)ccc(C)c4[nH]3)C2)C1 [compound 1043],40
3,Cc1ccc(F)c2cc(C(=O)Nc3cccc(N4CCC(O)(C5CCN(C)CC5)CC4)c3)[nH]c12 [compound 268],700
4,CNC1CCN(c2cccc(NC(=O)c3cc4c(F)ccc(C)c4[nH]3)c2)CC1 [compound 144],300
5,Cc1ccc(F)c2cc(C(=O)Nc3cc(N4CCN(C)CC4)c4nccn4c3)[nH]c12 [compound 338],1700
6,Cc1ccc(NC(=O)c2cc3c(F)ccc(C)c3[nH]2)cc1N1CCN(C)CC1 [compound 270],800
7,CCC(NC(=O)c1cc2cccc(C)c2[nH]1)c1ncccc1C (centres unmarked) [compound 471],8500
8,Cc1ccc(F)c2cc(C(=O)Nc3cccc(N4CCC(N5CCC(F)(F)CC5)C4)c3)[nH]c12 (centres unmarked) [compound 153],300
9,Cc1ccc(F)c2cc(C(=O)Nc3cccc(CC(=O)N(C)C)c3)[nH]c12 [compound 256],600
10,CC(=O)N1CCN([C@@H]2C[C@H](NC(=O)c3cc4c(F)ccc(C)c4[nH]3)CN(C)C2)CC1 [compound 1006],1800
11,Cc1ccc(F)c2cc(C(=O)N[C@@H]3CCC[C@@H](N4CCN5C(=O)N(C)C[C@@H]5C4)C3)[nH]c12 [compound 1127],1300
12,Cc1cccc2cc(C(=O)N[C@H]3CC[C@H](NC(=O)CCN4CCCCC4)CC3)[nH]c12 [compound 587],> 25000
13,Cc1ccc(F)c2cc(C(=O)N[C@@H]3CCC[C@H](N4CCC5(CC4)CNC(=O)N5)C3)[nH]c12 [compound 940],> 2000
14,Cc1ccc(F)c2cc(C(=O)N[C@@H]3CCC[C@H](N4CCn5c(nccc5=O)C4)C3)[nH]c12 [compound 1049],100
15,Cc1cc(Cn2ccnc2)cnc1C(NC(=O)c1cc2cccc(C)c2[nH]1)C1CC1 (centres unmarked) [compound 309],1300
16,CC(=O)N1CCN(c2ccc(F)c(NC(=O)c3cc4c(F)ccc(C)c4[nH]3)c2)CC1 [compound 185],400

# Target: T1, SETD2(1434-1711) (Homo sapiens, UniProt Q9BYW2)
# T1 construct: SETD2 (1434-1711) Assay; catalogue N/A
# T1 sequence (Q9BYW2 1434-1711): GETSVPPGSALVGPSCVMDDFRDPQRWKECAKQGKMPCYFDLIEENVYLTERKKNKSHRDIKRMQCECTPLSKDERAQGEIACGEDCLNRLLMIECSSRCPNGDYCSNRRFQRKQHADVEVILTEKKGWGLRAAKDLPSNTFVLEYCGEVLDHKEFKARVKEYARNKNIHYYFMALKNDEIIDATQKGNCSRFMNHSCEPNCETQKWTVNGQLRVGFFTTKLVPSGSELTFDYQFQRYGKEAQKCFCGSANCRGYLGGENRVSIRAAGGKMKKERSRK
# Assay: SETD2 (1434-1711) assay
# Format: biochemical
# Conditions: read-out: SETD2 (1434-1711)
row,SMILES,IC50 [nM]
1,Cc1cccc2cc(C(=O)NC3CCCCC3)[nH]c12 [compound 522],10600
2,Cc1ccc(F)c2cc(C(=O)N[C@@H]3CCC[C@@H](N4CCn5c(cnc5C(F)(F)F)C4)C3)[nH]c12 [compound 994],1800
3,COCC(=O)N(C)[C@H]1CCN([C@H]2CCC[C@@H](NC(=O)c3cc4c(F)ccc(C)c4[nH]3)C2)C1 [compound 1043],8
4,Cc1ccc(F)c2cc(C(=O)NC3CCCC(N4CCN(C(=O)C(C)C)C(C(F)(F)F)C4)C3)[nH]c12 (centres unmarked) [compound 1171],30
5,Cc1ccc(F)c2cc(C(=O)Nc3cccc(N4CCC(O)(C5CCN(C)CC5)CC4)c3)[nH]c12 [compound 268],60
6,Cc1ccc(F)c2cc(C(=O)Nc3cccc(N4CCC5(CC4)CN(C)C5)c3)[nH]c12 [compound 98],9
7,Cc1ccc(F)c2cc(C(=O)NC3CCCC(N4CCN5C(=O)OCC5C4)C3)[nH]c12 (centres unmarked) [compound 865],30
8,Cc1ccc(F)c2cc(C(=O)NC3CCCC(N4CCN(C(=O)CO)C(C(F)(F)F)C4)C3)[nH]c12 (centres unmarked) [compound 1117],30
9,CC(=O)N1CCC12CN(C1CCCC(NC(=O)c3cc4c(F)ccc(C)c4[nH]3)C1)C2 (centres unmarked) [compound 951],7000
10,CNC1CCN(c2cccc(NC(=O)c3cc4c(F)ccc(C)c4[nH]3)c2)CC1 [compound 144],20
11,Cc1cccc2cc(C(=O)NC(CN(C)C)c3cccnc3)[nH]c12 (centres unmarked) [compound 603],> 50000
12,Cc1ccc(F)c2cc(C(=O)Nc3cc(N4CCN(C)CC4)c4nccn4c3)[nH]c12 [compound 338],100
13,NCCC(=O)NC1CCC(NC(=O)c2cc3cccc(Br)c3[nH]2)CC1 (centres unmarked) [compound 553],8300
14,Cc1ccc(F)c2cc(C(=O)NC3CCCC(N4CCn5ccnc5C4)C3)[nH]c12 (centres unmarked) [compound 852],100
15,Cc1ccc(F)c2cc(C(=O)Nc3cc(F)cc(N4CC5(CCN(CC(F)F)CC5)C4)c3)[nH]c12 [compound 40],40
16,Cc1ccc(F)c2cc(C(=O)Nc3cccc(N4CCC(N5CCC(N)CC5)CC4)c3)[nH]c12 [compound 530],7
17,Cc1ccc(F)c2cc(C(=O)Nc3cccc(N4CC5CC4CN5C)c3)[nH]c12 (centres unmarked) [compound 348],70
18,Cc1ccc(NC(=O)c2cc3c(F)ccc(C)c3[nH]2)cc1N1CCN(C)CC1 [compound 270],50
19,Cc1ccc(F)c2cc(C(=O)Nc3cccc(C4CCN5C(=O)CCC5C4)c3)[nH]c12 (centres unmarked) [compound 37],20
20,CC(=O)N[C@H]1CC[C@H](NC(=O)c2cc3c(F)ccc(C)c3[nH]2)CC1 [compound 512],13200

row,SMILES,IC50 [nM]
1,CCC(NC(=O)c1cc2cccc(C)c2[nH]1)c1ncccc1C (centres unmarked) [compound 471],5400
2,Cc1ccc(F)c2cc(C(=O)Nc3cccc(N4CCC(N5CCC(F)(F)CC5)C4)c3)[nH]c12 (centres unmarked) [compound 153],50
3,Cc1ccc(F)c2cc(C(=O)Nc3cccc(CC(=O)N(C)C)c3)[nH]c12 [compound 256],200
4,CNC(=O)CCCc1cccc(NC(=O)c2cc3c(F)ccc(C)c3[nH]2)c1 [compound 288],300
5,CC(=O)N1CCN([C@@H]2C[C@H](NC(=O)c3cc4c(F)ccc(C)c4[nH]3)CN(C)C2)CC1 [compound 1006],1000
6,Cc1ccc(F)c2cc(C(=O)N[C@@H]3CCC[C@@H](N4CCN5C(=O)N(C)C[C@@H]5C4)C3)[nH]c12 [compound 1127],400
7,Cc1ccc(F)c2cc(C(=O)Nc3cccc(N4CCN(C(C)C)CC4)c3)[nH]c12 [compound 243],50
8,Cc1ccc(F)c2cc(C(=O)Nc3cccc(N4CCC(NCCN)CC4)c3)[nH]c12 [compound 413],30
9,Cc1ccc(F)c2cc(C(=O)NC3CCCC(N4CCC(N(CCO)S(C)(=O)=O)C4)C3)[nH]c12 (centres unmarked) [compound 1150],4200
10,Cc1ccc(F)c2cc(C(=O)NC3CCCC(c4cncnc4)C3)[nH]c12 (centres unmarked) [compound 369],6300
11,Cc1ccc(F)c2cc(C(=O)Nc3cccc(N4CCN(C5CCOCC5)CC4)c3)[nH]c12 [compound 207],100
12,Cc1ccc(F)c2cc(C(=O)Nc3cc(Cl)cc(N4CCN(C)CC4)c3)[nH]c12 [compound 91],10
13,Cc1ccc(F)c2cc(C(=O)NC3CCCC(N4CCC(N(C)C(=O)C5CC5)C4)C3)[nH]c12 (centres unmarked) [compound 971],10
14,Cc1cccc2cc(C(=O)N[C@H]3CC[C@H](NC(=O)CCN4CCCCC4)CC3)[nH]c12 [compound 587],37400
15,Cc1ccc(F)c2cc(C(=O)N[C@@H]3CCC[C@H](N4CCC5(CC4)CNC(=O)N5)C3)[nH]c12 [compound 940],20
16,Cc1ccc(F)c2cc(C(=O)N[C@@H]3CCC[C@H](N4CCn5c(nccc5=O)C4)C3)[nH]c12 [compound 1049],50
17,Cc1cc(Cn2ccnc2)cnc1C(NC(=O)c1cc2cccc(C)c2[nH]1)C1CC1 (centres unmarked) [compound 309],200
18,CC(=O)N1CCN(C2CCC(NC(=O)c3cc4c(F)ccc(C)c4[nH]3)CC2)CC1 (centres unmarked) [compound 383],> 10000
19,Cc1ccc(F)c2cc(C(=O)NC3CCCC(N4CCN(C(=O)CO)C(C(F)(F)F)C4)C3)[nH]c12 (centres unmarked) [compound 1173],40
20,CC(=O)N1CCN(c2ccc(F)c(NC(=O)c3cc4c(F)ccc(C)c4[nH]3)c2)CC1 [compound 185],100
